# Assay results from patent US20230027026A1, “FUSED PYRIMIDINE COMPOUNDS, COMPOSITIONS AND MEDICINAL APPLICATIONS THEREOF” (JUBILANT BIOSYS LIMITED, priority 2019, published 2023).
# Tests used:
# [1] = tested on: BT-474 cells; test: Cellular proliferation (Alamar Blue) assay, BT-474; type: cell-based; conditions: Homo sapiens
# Description: (§1) Example 3: Cellular Proliferation (Alamar Blue) Assays
# (§2) • 1. EGFR(D770_N771insSVD) expressing Ba/F3 stable cell line • 2. EGFR (A767_dupASV) expressing Ba/F3 stable cell line • 3. A431 cells • 4. BTER2 (A775_G776insYVMA) expressing Ba/F3 stable cell line • 5. BTER2 (WT) expressing Ba/F3 stable cell line • 6. BT-474 cells
# (§3) • 1. Seed cells at 5000 for A431 and 15,000 cells for Ba/F3 in 100 μL/well in complete media (for A431: DMEM with 10% FBS and for Ba/F3 cells: RPMI with 10% FBS) in 96-well tissue culture plate. Leave outer wells without cells for background measurements. Incubate at 37 degree Celsius in 5% CO2 humidified incubator for 16-18 hours. • 2. Add 0.025 ml of 5× concentration compound dilution or DMSO control. Final compound concentration range is 10-0.0005 μM prepared in 3-fold serial dilutions. Incubate for 72 hr at 37 degree Celsius in […] humidified incubator. • 3. Add 0.0125 mL Alamar Blue™ reagent to each well with multi-channel pipette and tap gently on each side of the plate to mix. Incubate for 3 hours at 37 degree Celsius in […] humidified incubator. • 4. Read plates on fluorescence reader (Tecan Spark Control, Device: Spark, Serial #: 1801006040) at 540 nm excitation, 590 nm emission wavelength. • 5. Data analysis was performed using XLfit 5.5.0.5.
# [2] = target: HER2 (WT) expressing Ba/F3 stable cell line (Homo sapiens, UniProt P04626); test: Cellular proliferation (Alamar Blue) assay, HER2 WT Ba/F3; type: cell-based; conditions: HER2 WT Ba/F3, 72 hr, read-out: HER2 WT Ba/F3 IC50
# Description: as §1, §2, §3
# [3] = tested on: H1975 cells (L858R_T790M mutant); test: H1975 proliferation assay; type: cell-based; conditions: Homo sapiens, NCI-H1975; read-out: Proliferation_Assay H1975 cells-EC50_nM L858R_T790M_mutant
# [4] = target: EGFR (A767_dupASV) expressing Ba/F3 stable cell line (Homo sapiens, UniProt P00533, DUP767-769, cells depend on it); test: Cellular proliferation (Alamar Blue) assay, EGFR A767_dupASV Ba/F3; type: cell-based; conditions: EGFR A767_dupASV Ba/F3, 72 hr, read-out: A767 IC50
# How it was run: (§4)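 Ba/F3 lines (15,000 cells/well, RPMI with 10% FBS) expressing mutant EGFR or HER2, plus BT-474 cells, treated 72 h at 37 °C with compound at 10-0.0005 μM final, 3-fold dilutions. Viability by Alamar Blue after 3 h, fluorescence 540 nm excitation/590 nm emission.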
# [5] = target: EGFR(D770_N771insSVD) expressing Ba/F3 stable cell line (Homo sapiens, UniProt P00533, DUP768-770, cells depend on it); test: Cellular proliferation (Alamar Blue) assay, EGFR D770_N771insSVD Ba/F3; type: cell-based; conditions: EGFR D770_N771insSVD Ba/F3, 72 hr, read-out: D770 IC50
# How it was run: as §4
# [6] = target: T1, EGFR (T790M/L858R) (Homo sapiens, UniProt P00533, L858R/T790M); test: EGFR L858R/T790M enzyme inhibition assay (HTRF); type: biochemical; conditions: 5 μM ATP, 60 min, read-out: EGFR_L858R T790M_IC50_nM
# T1 construct: GST; purchased Proqinase
# How it was run: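 HTRF kinase assay with 2.5 nM GST-EGFR T790M/L858R, 0.5 μM biotinylated gastrin peptide and 5 μM ATP in HEPES pH 7.4 with Mg/Mn, 60 min at room temperature; compounds from 10 μM top. Phosphotyrosine detected by Eu anti-pTyr/SA-APC; IC50 from % inhibition.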
# [7] = target: HER2 (A775_G776insYVMA) expressing Ba/F3 stable cell line (Homo sapiens, UniProt P04626, DUP772-775, cells depend on it); test: Cellular proliferation (Alamar Blue) assay, HER2 YVMA Ba/F3; type: cell-based; conditions: HER2 A775_G776insYVMA Ba/F3, 72 hr, read-out: YVMA IC50
# How it was run: as §4
# [8] = tested on: A431 cells; test: Cellular proliferation (Alamar Blue) assay, A431; type: cell-based; conditions: Homo sapiens, A-431; A431 cells, 72 hr, Alamar Blue; read-out: A431 IC50
# How it was run: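 Following a 16–18 h pre-incubation, cells received compound or DMSO for 72 h at 37 °C across a 10–0.0005 μM final range. Proliferation was then scored by Alamar Blue fluorescence (540 nm excitation, 590 nm emission) after 3 h.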
# Chain of EGFR (A767_dupASV) expressing Ba/F3 stable cell line (P00533 with tags, fused parts or gaps DUP767-769): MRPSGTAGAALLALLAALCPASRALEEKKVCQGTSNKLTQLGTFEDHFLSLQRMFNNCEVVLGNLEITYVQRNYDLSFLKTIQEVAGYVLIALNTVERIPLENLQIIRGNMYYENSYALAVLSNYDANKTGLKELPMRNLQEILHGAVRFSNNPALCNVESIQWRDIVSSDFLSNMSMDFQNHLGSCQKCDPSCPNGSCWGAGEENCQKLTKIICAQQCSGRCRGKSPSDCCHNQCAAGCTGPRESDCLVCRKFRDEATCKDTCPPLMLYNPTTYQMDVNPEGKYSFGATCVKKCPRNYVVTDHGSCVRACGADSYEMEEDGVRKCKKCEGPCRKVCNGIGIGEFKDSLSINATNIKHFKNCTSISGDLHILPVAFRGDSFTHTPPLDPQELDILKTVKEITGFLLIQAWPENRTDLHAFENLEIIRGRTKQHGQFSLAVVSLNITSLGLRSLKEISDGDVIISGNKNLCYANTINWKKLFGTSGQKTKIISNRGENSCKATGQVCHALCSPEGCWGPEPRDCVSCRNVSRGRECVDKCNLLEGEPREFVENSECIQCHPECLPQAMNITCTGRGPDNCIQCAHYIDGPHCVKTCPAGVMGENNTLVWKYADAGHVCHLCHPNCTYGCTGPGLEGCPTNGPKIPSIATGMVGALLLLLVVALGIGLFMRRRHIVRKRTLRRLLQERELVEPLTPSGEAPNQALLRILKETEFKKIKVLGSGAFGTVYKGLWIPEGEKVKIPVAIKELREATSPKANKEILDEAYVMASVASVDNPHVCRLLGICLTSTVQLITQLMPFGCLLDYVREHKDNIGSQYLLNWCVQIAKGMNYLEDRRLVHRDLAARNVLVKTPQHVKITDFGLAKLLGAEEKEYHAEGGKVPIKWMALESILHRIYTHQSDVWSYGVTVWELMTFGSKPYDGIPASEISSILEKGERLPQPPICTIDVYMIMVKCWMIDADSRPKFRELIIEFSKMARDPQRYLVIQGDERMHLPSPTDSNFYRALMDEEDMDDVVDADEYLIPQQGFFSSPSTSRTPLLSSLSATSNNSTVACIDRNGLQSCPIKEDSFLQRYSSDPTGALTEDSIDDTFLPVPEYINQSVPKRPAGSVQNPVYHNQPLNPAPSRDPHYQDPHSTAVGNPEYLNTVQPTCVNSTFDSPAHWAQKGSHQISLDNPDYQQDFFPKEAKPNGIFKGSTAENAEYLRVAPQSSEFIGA
# Chain of EGFR(D770_N771insSVD) expressing Ba/F3 stable cell line (P00533 with tags, fused parts or gaps DUP768-770): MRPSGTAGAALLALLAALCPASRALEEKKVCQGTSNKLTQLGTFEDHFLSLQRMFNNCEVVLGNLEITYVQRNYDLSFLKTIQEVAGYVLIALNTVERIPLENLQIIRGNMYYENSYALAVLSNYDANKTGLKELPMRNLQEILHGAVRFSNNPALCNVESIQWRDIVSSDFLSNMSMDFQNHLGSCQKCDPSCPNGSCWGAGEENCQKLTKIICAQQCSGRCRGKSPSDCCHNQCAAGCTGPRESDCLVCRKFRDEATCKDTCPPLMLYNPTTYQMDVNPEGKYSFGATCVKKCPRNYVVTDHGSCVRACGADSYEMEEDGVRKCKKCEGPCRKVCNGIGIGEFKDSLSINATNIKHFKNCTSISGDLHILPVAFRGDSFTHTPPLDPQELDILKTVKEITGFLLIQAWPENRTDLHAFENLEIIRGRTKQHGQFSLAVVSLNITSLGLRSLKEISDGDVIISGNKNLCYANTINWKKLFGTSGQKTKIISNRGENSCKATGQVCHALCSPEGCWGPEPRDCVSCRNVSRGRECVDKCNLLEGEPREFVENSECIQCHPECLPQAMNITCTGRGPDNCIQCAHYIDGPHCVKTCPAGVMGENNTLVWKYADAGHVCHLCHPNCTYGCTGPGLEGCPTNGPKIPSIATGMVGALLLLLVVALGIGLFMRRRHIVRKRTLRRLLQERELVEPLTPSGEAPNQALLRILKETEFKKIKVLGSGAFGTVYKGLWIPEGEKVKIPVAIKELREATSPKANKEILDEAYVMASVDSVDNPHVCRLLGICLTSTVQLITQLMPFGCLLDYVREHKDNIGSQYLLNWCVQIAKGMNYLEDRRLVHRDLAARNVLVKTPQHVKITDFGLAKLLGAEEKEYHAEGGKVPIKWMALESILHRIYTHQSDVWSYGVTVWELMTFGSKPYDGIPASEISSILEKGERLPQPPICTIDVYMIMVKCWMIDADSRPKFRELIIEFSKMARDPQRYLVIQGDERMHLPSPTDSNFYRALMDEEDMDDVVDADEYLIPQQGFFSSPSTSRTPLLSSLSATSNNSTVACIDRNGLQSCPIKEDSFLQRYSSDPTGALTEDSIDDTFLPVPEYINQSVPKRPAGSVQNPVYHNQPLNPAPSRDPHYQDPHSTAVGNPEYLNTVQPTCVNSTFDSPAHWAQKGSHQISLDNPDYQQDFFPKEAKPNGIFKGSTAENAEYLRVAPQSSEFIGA
# Chain of HER2 (A775_G776insYVMA) expressing Ba/F3 stable cell line (P04626 with tags, fused parts or gaps DUP772-775): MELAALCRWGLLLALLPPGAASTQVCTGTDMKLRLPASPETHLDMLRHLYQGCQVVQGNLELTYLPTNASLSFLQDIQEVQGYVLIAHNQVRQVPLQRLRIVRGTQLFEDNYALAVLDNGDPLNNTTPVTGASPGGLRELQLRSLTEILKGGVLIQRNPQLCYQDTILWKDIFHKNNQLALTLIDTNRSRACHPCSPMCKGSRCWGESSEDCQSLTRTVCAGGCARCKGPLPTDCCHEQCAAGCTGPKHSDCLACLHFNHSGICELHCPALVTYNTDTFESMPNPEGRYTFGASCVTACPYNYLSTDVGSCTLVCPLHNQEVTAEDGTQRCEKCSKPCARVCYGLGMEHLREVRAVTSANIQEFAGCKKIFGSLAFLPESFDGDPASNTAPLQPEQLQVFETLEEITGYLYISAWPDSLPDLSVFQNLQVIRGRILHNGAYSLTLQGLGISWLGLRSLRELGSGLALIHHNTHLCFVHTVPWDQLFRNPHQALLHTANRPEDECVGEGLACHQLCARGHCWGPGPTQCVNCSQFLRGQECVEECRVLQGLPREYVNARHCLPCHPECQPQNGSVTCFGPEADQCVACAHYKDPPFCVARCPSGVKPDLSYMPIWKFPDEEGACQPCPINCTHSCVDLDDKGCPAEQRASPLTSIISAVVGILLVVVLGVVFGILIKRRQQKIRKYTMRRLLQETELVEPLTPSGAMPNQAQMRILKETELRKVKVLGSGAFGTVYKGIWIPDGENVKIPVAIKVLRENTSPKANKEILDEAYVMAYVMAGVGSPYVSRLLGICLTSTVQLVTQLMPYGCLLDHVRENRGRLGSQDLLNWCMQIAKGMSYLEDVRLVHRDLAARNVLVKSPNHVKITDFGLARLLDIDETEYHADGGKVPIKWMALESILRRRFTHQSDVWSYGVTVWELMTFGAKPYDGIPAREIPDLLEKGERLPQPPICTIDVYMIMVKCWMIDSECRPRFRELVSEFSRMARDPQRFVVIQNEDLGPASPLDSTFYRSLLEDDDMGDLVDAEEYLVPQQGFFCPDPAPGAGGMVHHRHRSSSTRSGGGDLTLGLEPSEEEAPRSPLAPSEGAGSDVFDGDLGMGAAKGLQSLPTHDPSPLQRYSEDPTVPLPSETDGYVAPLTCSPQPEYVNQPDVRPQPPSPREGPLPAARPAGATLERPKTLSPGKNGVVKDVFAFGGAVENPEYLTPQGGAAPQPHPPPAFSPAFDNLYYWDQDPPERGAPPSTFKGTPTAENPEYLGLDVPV
# T1 sequence (P00533 25-1210 T790M/L858R): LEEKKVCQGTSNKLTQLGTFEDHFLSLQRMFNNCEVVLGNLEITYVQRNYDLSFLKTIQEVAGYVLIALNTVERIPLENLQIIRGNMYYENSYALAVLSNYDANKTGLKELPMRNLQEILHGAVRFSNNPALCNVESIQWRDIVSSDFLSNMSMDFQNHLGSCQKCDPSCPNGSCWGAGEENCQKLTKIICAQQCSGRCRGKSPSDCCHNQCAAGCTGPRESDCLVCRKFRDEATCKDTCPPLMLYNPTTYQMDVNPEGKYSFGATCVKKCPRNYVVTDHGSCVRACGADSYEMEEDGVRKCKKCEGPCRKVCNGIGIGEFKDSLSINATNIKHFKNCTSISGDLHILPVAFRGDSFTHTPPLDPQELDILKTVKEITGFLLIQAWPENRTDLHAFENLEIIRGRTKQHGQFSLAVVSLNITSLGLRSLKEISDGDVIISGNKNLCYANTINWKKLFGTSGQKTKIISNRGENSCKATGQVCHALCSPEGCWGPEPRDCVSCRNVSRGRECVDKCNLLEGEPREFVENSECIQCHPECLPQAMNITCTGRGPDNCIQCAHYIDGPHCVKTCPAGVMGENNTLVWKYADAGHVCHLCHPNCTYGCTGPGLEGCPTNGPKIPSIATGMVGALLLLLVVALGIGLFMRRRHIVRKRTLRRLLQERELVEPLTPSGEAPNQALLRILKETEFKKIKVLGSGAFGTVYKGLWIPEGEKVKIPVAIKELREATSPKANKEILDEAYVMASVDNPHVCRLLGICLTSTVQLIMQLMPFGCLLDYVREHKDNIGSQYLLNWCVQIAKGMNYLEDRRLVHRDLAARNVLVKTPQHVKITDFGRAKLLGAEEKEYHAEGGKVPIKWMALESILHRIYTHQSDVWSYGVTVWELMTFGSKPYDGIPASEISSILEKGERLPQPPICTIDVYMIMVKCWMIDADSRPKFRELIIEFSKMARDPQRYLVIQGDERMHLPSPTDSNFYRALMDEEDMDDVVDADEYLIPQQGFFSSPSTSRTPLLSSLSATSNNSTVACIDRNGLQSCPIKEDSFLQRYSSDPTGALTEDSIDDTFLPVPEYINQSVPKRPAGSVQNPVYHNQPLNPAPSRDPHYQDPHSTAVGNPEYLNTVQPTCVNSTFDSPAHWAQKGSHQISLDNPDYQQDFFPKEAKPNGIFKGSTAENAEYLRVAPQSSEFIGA
SMILES,IC50 [1] [nM],GI50 [2] [nM],EC50 [3] [nM],GI50 [4] [nM],GI50 [5] [nM],IC50 [6] [nM],GI50 [7] [nM],IC50 [8] [nM]
"C=CC(=O)Nc1cccc(N2C(=O)N(Cc3ccccc3)Cc3cnc(Nc4cnn(C)c4)nc32)c1 [Compound 1, N-(3-(3-benzyl-7-((1-methyl-1H-pyrazol-4-yl)amino)-2-oxo-3,4-dihydropyrimido[4,5-d]pyrimidin-1(2H)-yl)phenyl)acrylamide]",7.7,< 0.5,6.8,14,4,0.4,9.9,65
"C=CC(=O)Nc1cccc(N2C(=O)N(Cc3ccccc3)Cc3cnc(Nc4cn(CC(F)(F)F)nc4C)nc32)c1 [Compound 6, N-(3-(3-benzyl-7-((3-methyl-1-(2,2,2-trifluoroethyl)-1H-pyrazol-4-yl)amino)-2-oxo-3,4-dihydropyrimido[4,5-d]pyrimidin-1(2H)-yl)phenyl)acrylamide]",–,–,8.1,9,9,1,11,1890
"CN(C)C/C=C/C(=O)Nc1cccc(N2C(=O)N(Cc3ccccc3)Cc3cnc(Nc4cn(C)nc4Cl)nc32)c1 [Compound 20, (E)-N-(3-(3-benzyl-7-((3-chloro-1-methyl-1H-pyrazol-4-yl)amino)-2-oxo-3,4-dihydropyrimido[4,5-d]pyrimidin-1(2H)-yl)phenyl)-4-(dimethylamino)but-2-enamide]",4.1,0.7,2,34,35,1,14.9,595
